Source: ChEMBL document CHEMBL1132460, “Affinity and selectivity of matrix metalloproteinase inhibitors: a chemometrical study from the perspective of ligands and proteins” (J Med Chem, 1999)
pIC50: −log10 of the molar value.

Experiments:
[1] = target: Stromelysin-1 (Homo sapiens, UniProt P08254); assay: Inhibitory concentration against human matrix metalloprotease-3 (MMP-3); conditions: for pIC50: read-out: IC50
[2] = target: Neutrophil collagenase (Homo sapiens, UniProt P22894); assay: Inhibitory concentration against human matrix metalloprotease-8 (human neutrophil collagenase, MMP-8)
Sequence of Neutrophil collagenase (P22894 whole entry): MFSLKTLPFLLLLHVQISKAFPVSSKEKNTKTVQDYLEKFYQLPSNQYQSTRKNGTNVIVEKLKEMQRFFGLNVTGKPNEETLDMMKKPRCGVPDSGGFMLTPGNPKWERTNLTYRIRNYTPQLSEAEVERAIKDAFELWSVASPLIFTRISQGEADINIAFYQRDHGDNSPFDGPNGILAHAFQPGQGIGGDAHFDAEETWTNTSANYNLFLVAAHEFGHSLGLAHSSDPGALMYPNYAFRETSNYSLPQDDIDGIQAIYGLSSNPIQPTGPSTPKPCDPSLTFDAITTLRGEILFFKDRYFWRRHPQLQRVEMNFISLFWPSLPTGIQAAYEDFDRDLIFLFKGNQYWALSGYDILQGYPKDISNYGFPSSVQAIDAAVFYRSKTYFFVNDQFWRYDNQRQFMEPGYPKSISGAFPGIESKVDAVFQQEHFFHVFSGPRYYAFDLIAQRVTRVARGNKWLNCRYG

[3] = Affinity ratio of IC50 of MMP-3 to IC50 of MMP-8
[4] = Affinity ratio of IC50 of MMP-8 to IC50 of MMP-3

Sequence of Stromelysin-1 (P08254 whole entry): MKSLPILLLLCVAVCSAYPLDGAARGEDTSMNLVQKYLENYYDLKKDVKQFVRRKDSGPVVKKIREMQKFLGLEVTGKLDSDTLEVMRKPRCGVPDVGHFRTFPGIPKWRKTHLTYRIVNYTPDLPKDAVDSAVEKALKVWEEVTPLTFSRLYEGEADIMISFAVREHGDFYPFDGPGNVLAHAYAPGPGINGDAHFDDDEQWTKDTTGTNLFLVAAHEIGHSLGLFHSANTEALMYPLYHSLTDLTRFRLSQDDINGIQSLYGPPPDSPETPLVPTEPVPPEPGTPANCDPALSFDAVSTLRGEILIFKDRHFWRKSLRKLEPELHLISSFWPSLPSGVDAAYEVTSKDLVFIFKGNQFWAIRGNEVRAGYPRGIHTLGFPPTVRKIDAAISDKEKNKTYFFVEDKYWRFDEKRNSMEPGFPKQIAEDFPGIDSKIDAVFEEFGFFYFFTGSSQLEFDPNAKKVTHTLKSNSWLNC

| SMILES | pIC50 [1] | pIC50 [2] | log10(IC50 MMP-3/IC50 MMP-8) [3] | IC50 [1] | Selectivity [4] |
| --- | --- | --- | --- | --- | --- |
| CCOC(=O)Oc1ccc2c(c1)CN(S(=O)(=O)c1ccc(OC)cc1)C(C(=O)NO)C2 (centres undefined) | 7.70 | 8.70 | 1 | – | – |
| CCCCCCCCCCCCCCCCS(=O)(=O)N1Cc2ccccc2CC1C(=O)NO (centres undefined) | – | 5.52 | 0.52 | 10000 nM l-1 | – |
| COc1ccc(S(=O)(=O)N2Cc3cc(O)ccc3CC2C(=O)NO)cc1 (centres undefined) | 8.00 | 9.00 | 1 | – | – |
| O=C(O)C1Cc2ccccc2CN1S(=O)(=O)c1ccc(Br)cc1 (centres undefined) | 5.30 | 6.22 | – | – | – |
| O=C(NO)C1Cc2ccccc2CN1S(=O)(=O)c1ccc(-c2ccccc2)cc1 (centres undefined) | – | 8.70 | 1 | – | – |
| O=C(O)C1Cc2ccccc2CN1S(=O)(=O)c1ccc(Oc2ccccc2)cc1 (centres undefined) | 6.70 | 8.05 | – | – | – |
| COc1ccc(S(=O)(=O)N2Cc3cc(NC(=O)OC(C)(C)C)ccc3CC2C(=O)NO)cc1 (centres undefined) | 7.70 | 8.52 | 0.82 | – | – |
| O=C(NO)C1Cc2ccccc2CN1S(=O)(=O)c1ccc(N2CCOCC2)cc1 (centres undefined) | 6.52 | 7.00 | 0.48 | – | – |
| O=C(Nc1cccc(S(=O)(=O)N2Cc3ccccc3CC2C(=O)NO)c1)c1ccccc1O (centres undefined) | – | 6.70 | – | 10000 nM l-1 | – |
| CC(C)(C)OC(=O)Nc1ccc2c(c1)CC(C(=O)O)N(S(=O)(=O)c1ccc(-c3ccc(F)cc3)cc1)C2 (centres undefined) | 6.40 | 7.52 | – | – | 1.12 |
| O=C(O)C1Cc2ccccc2CN1S(=O)(=O)c1ccc(-c2ccc(C(F)(F)F)cc2)cc1 (centres undefined) | 6.52 | 8.00 | – | – | – |
| O=C(O)C1Cc2ccccc2CN1S(=O)(=O)c1ccc(-c2ccon2)s1 (centres undefined) | 5.70 | 6.22 | – | – | – |
| O=C(O)C1Cc2ccccc2CN1S(=O)(=O)CCc1ccc(-c2ccccc2)cc1 (centres undefined) | 7.30 | 7.70 | – | – | – |
| COc1ccc(S(=O)(=O)N2Cc3cc(O)ccc3CC2C(=O)O)cc1 (centres undefined) | – | 5.52 | – | 10000 nM l-1 | 0.52 |
| O=C(NO)C1Cc2ccccc2CN1S(=O)(=O)c1ccc2oc3ccccc3c2c1 (centres undefined) | 7.00 | 8.00 | 1 | – | – |
| O=C(NO)C1Cc2ccccc2CN1S(=O)(=O)c1cc(Br)c(Br)s1 (centres undefined) | – | 6.30 | 1.3 | 10000 nM l-1 | – |
| CN(C)c1ccc(-c2ccc(S(=O)(=O)N3Cc4ccccc4CC3C(=O)NO)cc2)cc1 (centres undefined) | 7.70 | 8.70 | 1 | – | – |
| COc1ccc(S(=O)(=O)N2Cc3ccccc3C[C@@H]2C(=O)NO)cc1 | 7.70 | – | 0.7 | – | – |
| O=C(NO)C1Cc2ccccc2CN1S(=O)(=O)CCc1ccncc1 (centres undefined) | 6.05 | 7.52 | 1.48 | – | – |
| O=C(NO)C1Cc2ccccc2CN1S(=O)(=O)c1ccc(C(F)(F)F)cc1 (centres undefined) | 6.30 | 7.30 | 1 | – | – |
| N#Cc1ccc(Oc2ccc(S(=O)(=O)N3Cc4ccccc4CC3C(=O)O)cc2)cc1 (centres undefined) | 6.00 | 8.00 | – | – | – |
| O=C(c1ccccc1)c1ccc(S(=O)(=O)N2Cc3ccccc3CC2C(=O)O)cc1 (centres undefined) | 5.52 | 6.52 | – | – | – |
| O=C(NO)[C@H]1Cc2c([nH]c3ccccc23)CN1S(=O)(=O)c1ccc(N2CCOCC2)cc1 | – | – | 0.63 | – | – |

| SMILES | pIC50 [1] | pIC50 [2] | log10(IC50 MMP-3/IC50 MMP-8) [3] | IC50 [1] | Selectivity [4] |
| --- | --- | --- | --- | --- | --- |
| COc1ccc(S(=O)(=O)N2Cc3cc([N+](=O)[O-])ccc3CC2C(=O)NO)cc1 (centres undefined) | – | – | 1 | – | – |
| O=C(O)C1Cc2ccccc2CN1S(=O)(=O)c1ccc(-c2ccccn2)s1 (centres undefined) | 5.70 | 7.05 | – | – | – |
| COc1ccc(S(=O)(=O)N2Cc3ncn(C)c3C[C@@H]2C(=O)O)cc1 | – | 6.00 | 1 | 10000 nM l-1 | – |
| O=C(O)[C@H]1Cc2c([nH]c3ccccc23)CN1S(=O)(=O)c1ccc(Oc2ccccc2)cc1 | – | – | 1.3 | – | – |
| CNC(=O)c1ccc(Oc2ccc(S(=O)(=O)N3Cc4ccccc4CC3C(=O)O)cc2)cc1 (centres undefined) | 6.52 | 7.40 | – | – | – |
| COc1ccc(S(=O)(=O)N2Cc3[nH]cnc3C[C@@H]2C(=O)NO)cc1 | – | – | 0.7 | – | – |
| O=C(O)C1Cc2ccccc2CN1S(=O)(=O)c1ccc(Oc2ccc(Cl)cc2)cc1 (centres undefined) | 6.30 | 7.70 | – | – | – |
| O=C(O)[C@H]1Cc2ccccc2CN1S(=O)(=O)c1ccc(-c2ccc(F)cc2)cc1 | 6.40 | – | – | – | 1.3 |
| O=C(O)C1Cc2ccccc2CN1S(=O)(=O)c1ccc(-c2nc3ccccc3o2)cc1 (centres undefined) | 6.10 | 7.10 | – | – | – |
| COc1ccc(S(=O)(=O)N2Cc3cc(NC(=O)CCC(=O)O)ccc3CC2C(=O)NO)cc1 (centres undefined) | 7.70 | 7.40 | -0.3 | – | – |
| O=C(NO)C1Cc2ccccc2CN1S(=O)(=O)c1cc(S(=O)(=O)c2ccccc2)cs1 (centres undefined) | – | 5.70 | 0.7 | 10000 nM l-1 | – |
| Nc1ccc2c(c1)CN(S(=O)(=O)c1ccc(-c3ccc(F)cc3)cc1)C(C(=O)NO)C2 (centres undefined) | 7.70 | 8.70 | 1 | – | – |
| CC(=O)Nc1ccc(S(=O)(=O)N2Cc3ccccc3CC2C(=O)NO)cc1 (centres undefined) | – | – | 0.85 | – | – |
| O=C(NO)C1Cc2ccccc2CN1S(=O)(=O)c1ccc2ccccc2c1 (centres undefined) | 6.40 | 7.15 | 0.76 | – | – |
| O=C(NO)C1Cc2ccccc2CN1S(=O)(=O)c1ccc2[nH]c(-c3ccccc3)nc2c1 (centres undefined) | 6.30 | 7.40 | 1.1 | – | – |
| O=C(O)C1Cc2ccc(O)cc2CN1S(=O)(=O)c1ccc(-c2ccc(Cl)cc2)cc1 (centres undefined) | 6.70 | 7.70 | – | – | – |
| COc1ccc(S(=O)(=O)N2Cc3ccccc3C[C@H]2C(=O)NO)cc1 | 5.15 | – | 0.85 | – | – |
| O=C(O)[C@@H]1Cc2ccccc2CN1S(=O)(=O)c1ccc(-c2ccc(F)cc2)cc1 | – | – | – | 10000 nM l-1 | 0.4 |
| COc1ccc(S(=O)(=O)N2Cc3[nH]c4ccccc4c3C[C@@H]2C(=O)NO)cc1 | – | – | 0.82 | – | – |
| CCOC(=O)Nc1ccc(S(=O)(=O)N2Cc3ccccc3CC2C(=O)NO)cc1 (centres undefined) | – | – | 1.22 | – | – |
| COc1ccc(S(=O)(=O)N2Cc3cc(N)ccc3CC2C(=O)NO)cc1 (centres undefined) | 8.00 | – | – | – | – |
| O=C(NO)C1Cc2ccccc2CN1S(=O)(=O)c1ccc(-c2ccon2)s1 (centres undefined) | 7.30 | 8.10 | 0.8 | – | – |
| COc1ccc(S(=O)(=O)N2Cc3ncn(C)c3C[C@@H]2C(=O)NO)cc1 | 7.70 | – | 0.82 | – | – |

| SMILES | pIC50 [1] | pIC50 [2] | log10(IC50 MMP-3/IC50 MMP-8) [3] | IC50 [1] | Selectivity [4] |
| --- | --- | --- | --- | --- | --- |
| O=C(NO)C1Cc2ccccc2CN1S(=O)(=O)c1ccc(-c2ccc(Cl)cc2)cc1 (centres undefined) | 7.70 | 8.52 | 0.82 | – | – |
| O=C(O)C1Cc2ccccc2CN1S(=O)(=O)c1ccc(Sc2ccccc2)cc1 (centres undefined) | 5.70 | 6.70 | – | – | – |
| COc1ccc(S(=O)(=O)N2Cc3cc(NC(=O)[C@H](C)NC(=O)OC(C)(C)C)ccc3CC2C(=O)NO)cc1 (some centres undefined) | 7.70 | 8.70 | 1 | – | – |
| O=C(O)C1Cc2ccccc2CN1S(=O)(=O)c1ccc(-n2nccn2)cc1 (centres undefined) | 6.22 | 7.05 | – | – | – |
| O=C(Nc1ccc(S(=O)(=O)N2Cc3ccccc3CC2C(=O)NO)cc1)OCc1ccccc1 (centres undefined) | 6.40 | 6.10 | – | – | – |
| O=C(NO)C1Cc2ccccc2CN1S(=O)(=O)Cc1ccc(-c2ccccn2)s1 (centres undefined) | 7.70 | 8.70 | 1 | – | – |
| O=C(NO)C1Cc2ccccc2CN1S(=O)(=O)c1ccc(OCc2ccc(F)cc2)cc1 (centres undefined) | 7.70 | 8.70 | 1 | – | – |
| COc1ccc(S(=O)(=O)Oc2ccc3c(c2)CN(S(=O)(=O)c2ccc(OC)cc2)C(C(=O)NO)C3)cc1 (centres undefined) | 7.52 | 8.10 | 0.57 | – | – |
| O=C(O)C1Cc2ccccc2CN1S(=O)(=O)c1ccc(/C=C/c2ccccc2)cc1 (centres undefined) | 6.15 | 7.22 | – | – | – |
| CC(C)(C)OC(=O)Nc1ccc2c(c1)CN(S(=O)(=O)c1ccc(-c3ccc(F)cc3)cc1)C(C(=O)NO)C2 (centres undefined) | 7.00 | 8.00 | 1 | – | – |
| COc1ccc(S(=O)(=O)N2Cc3cc(NC(=O)[C@H](CC(=O)OC(C)(C)C)NC(=O)Cc4ccccc4)ccc3CC2C(=O)NO)cc1 (some centres undefined) | 7.40 | 8.00 | 0.6 | – | – |
| O=C(NO)C1Cc2ccccc2CN1S(=O)(=O)c1ccc(Oc2ccccc2)cc1 (centres undefined) | 7.70 | 8.70 | 1 | – | – |
| CSc1nccc(-c2ccc(S(=O)(=O)N3Cc4ccccc4CC3C(=O)NO)s2)n1 (centres undefined) | 5.70 | 7.70 | 2 | – | – |
| COc1ccc(S(=O)(=O)N2Cc3cc(NC(=O)[C@H](C)N)ccc3CC2C(=O)NO)cc1 (some centres undefined) | 7.52 | – | – | – | – |
| COc1ccc(OC(=O)Nc2cccc(S(=O)(=O)N3Cc4ccccc4CC3C(=O)NO)c2)cc1 (centres undefined) | 5.52 | 6.70 | 1.18 | – | – |
| CSc1nccc(-c2ccc(S(=O)(=O)N3Cc4ccccc4CC3C(=O)O)s2)n1 (centres undefined) | – | 6.00 | – | 10000 nM l-1 | – |
| CCCCOc1ccc(S(=O)(=O)N2Cc3ccccc3CC2C(=O)NO)cc1 (centres undefined) | 7.52 | 8.70 | 1.18 | – | – |
| O=C(NCc1csc(S(=O)(=O)N2Cc3ccccc3CC2C(=O)NO)c1)c1ccccc1 (centres undefined) | 5.22 | 6.10 | 0.88 | – | – |
| COC(=O)c1csc(S(=O)(=O)N2Cc3ccccc3CC2C(=O)NO)c1OC (centres undefined) | 6.15 | 7.10 | 0.94 | – | – |
| CN(C)c1cccc2c(S(=O)(=O)N3Cc4ccccc4CC3C(=O)NO)cccc12 (centres undefined) | 6.40 | 6.70 | 0.3 | – | – |
| CN(C)c1ccc(Oc2ccc(S(=O)(=O)N3Cc4ccccc4CC3C(=O)NO)cc2)cc1 (centres undefined) | 7.52 | 8.70 | 1.18 | – | – |
| O=C(c1ccccc1)c1ccc(S(=O)(=O)N2Cc3ccccc3CC2C(=O)NO)cc1 (centres undefined) | 7.52 | 8.52 | 1 | – | – |
| O=C(NO)C1Cc2ccccc2CN1S(=O)(=O)Cc1ccccc1 (centres undefined) | – | 5.52 | – | 10000 nM l-1 | – |
